# Test results taken from paper PMC11259170, “Small-molecule probe for IBD risk variant GPR65 I231L alters cytokine signaling networks through positive allosteric modulation” (Science Advances, 2024).
# Where two headings read alike, the source gives them in different places.
# Key:
# [1] = Solubility in phosphate buffer; format: physicochemical; conditions: read-out: Solubility
# [2] = system: GFP-expressing HeLa cells; test: cAMP detection in HeLa expression cell line, GFP control; format: cell-based, human; conditions: for EC50 / Emax: Homo sapiens, HeLa; for Emax / GFP Max Activity: relative to 100uM forskolin (100%) and DMSO (0%); for Emax: read-out: GFP Max Activity %; for GFP Max Activity: third pair
# In short: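 HeLa cells stably expressing C-terminally V5-tagged receptor or GFP (lentiviral, puromycin 3 μg/ml) stimulated at 1500 cells per well for 30 min at RT with compound (10 mM DMSO stock) in stimulation buffer at pH 7.2. cAMP detected by Lance Ultra TR-FRET after lysis and 1 h detection, excitation 337 nm, emission 620/665 nm.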
# mGPR65 = biological target: T1, mGPR65 (Mus musculus, UniProt Q61038); test: cAMP detection in HeLa expression cell line, mGPR65; format: cell-based; conditions: for Emax: HeLa, read-out: mGPR Max Activity %; for Emax / mGPR Max Activity: relative to 100uM forskolin (100%) and DMSO (0%); for mGPR Max Activity: third pair
# T1 construct: expressed in transfected cells; host or cells: HeLa (ATCC CCL-2), lentiviral transduction, pLX317
# In short: (§1)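 TR-FRET cAMP read-out (Lance Ultra; ex 337 nm, em 620 and 665 nm) after 1 h detection in the dark, following a 30 min RT stimulation of 1500 cells per well in pH 7.2 stimulation buffer with compound supplied as 10 mM DMSO stock. Cells: lentivirally transduced HeLa lines carrying V5-tagged GPCR or GFP, kept under 3 μg/ml puromycin.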
# Lipophilicity (logD) = format: physicochemical; conditions: pH 7.4; pH7.4; read-out: LogD (pH7.4)
# hGPR65 = biological target: T2, hGPR65 (Homo sapiens, UniProt Q8IYL9); test: cAMP detection in HeLa expression cell line, hGPR65; format: cell-based; conditions: for Emax: HeLa, read-out: hGPR Max Activity %; for Emax / hGPR Max Activity: relative to 100uM forskolin (100%) and DMSO (0%); for hGPR Max Activity: third pair
# T2 construct: expressed in transfected cells; host or cells: HeLa (ATCC CCL-2), lentiviral transduction, pLX317
# In short: as §1
# [3] = Comment on solubility in SAR table; format: physicochemical
# Description: Supplement sciadv.adn2339_data_s1_to_s4.zip/sciadv.adn2339_data_s2.xlsx, sheet "SAR cAMP Assay"
# [4] = 1st GFP column pair, NA = no activity
# [5] = 2nd GFP column pair, NA = no activity
# [6] = SAR cAMP assay, third EC50/Max pair of GFP control columns
# [7] = SAR cAMP assay, third EC50/Max pair of mGPR columns, read-out: mGPR EC50
# [8] = SAR cAMP assay, second EC50/Max pair of hGPR columns, read-out: hGPR EC50
# [9] = SAR cAMP assay, third EC50/Max pair of hGPR columns, read-out: hGPR EC50
# [10] = SAR cAMP assay, first EC50/Max pair of hGPR columns, read-out: hGPR EC50
# T2 sequence (Q8IYL9 whole entry): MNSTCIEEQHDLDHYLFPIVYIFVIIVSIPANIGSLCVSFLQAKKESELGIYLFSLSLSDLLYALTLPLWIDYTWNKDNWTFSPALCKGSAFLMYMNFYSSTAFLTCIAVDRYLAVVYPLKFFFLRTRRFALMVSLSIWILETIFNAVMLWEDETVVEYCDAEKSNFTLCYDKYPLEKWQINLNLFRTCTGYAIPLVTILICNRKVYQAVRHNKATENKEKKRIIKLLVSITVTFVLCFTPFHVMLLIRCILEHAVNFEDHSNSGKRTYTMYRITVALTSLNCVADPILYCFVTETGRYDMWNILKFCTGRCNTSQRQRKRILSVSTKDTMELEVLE
# T1 sequence (Q61038 whole entry): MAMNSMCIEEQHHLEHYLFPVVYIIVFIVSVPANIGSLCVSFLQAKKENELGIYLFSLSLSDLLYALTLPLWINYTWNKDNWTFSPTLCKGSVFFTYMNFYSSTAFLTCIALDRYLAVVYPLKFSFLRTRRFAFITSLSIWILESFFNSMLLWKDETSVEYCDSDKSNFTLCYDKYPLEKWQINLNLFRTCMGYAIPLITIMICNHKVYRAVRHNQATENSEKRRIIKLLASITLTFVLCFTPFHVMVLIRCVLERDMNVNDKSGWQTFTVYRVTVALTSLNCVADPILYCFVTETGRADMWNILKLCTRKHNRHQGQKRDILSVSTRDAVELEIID
smiles,measurement,setting,value
"Cc1ccc(NC(=O)c2cnn3c(O)cc(-c4ccc(COC(C)C)cc4)nc23)cc1Cl [BRD5079, O=C(NC1=CC=C(C)C(Cl)=C1)C2=C3N(N=C2)C(O)=CC(C4=CC=C(COC(C)C)C=C4)=N3]",solubility,[1],< 1.56 µM
same,EC50,[2]; [4],4310 nM
same,Emax,[2]; [4],1.78%
same,EC50,[2]; [5],1210 nM
same,Emax,[2]; [5],2.88%
same,activity for mGPR65 among prioritized molecules,"mGPR65; 1.56 μM, pH 7.2",highest activity
same,Emax,"mGPR65; 2nd mGPR column pair, NA = no activity",48.8%
same,Emax,mGPR65; NA = no activity,57.5%
same,EC50,"mGPR65; mGPR EC50 (uM), 2nd mGPR column pair, NA = no activity",0.276 µM
same,EC50,"mGPR65; mGPR EC50 (uM), first pair of columns, pH 7.2, 30 min",0.345 µM
same,EC50,"mGPR65; mGPR EC50 (uM), second pair of columns, pH 7.2, 30 min",0.591 µM
same,EC50,"mGPR65; mGPR EC50 (uM), NA = no activity",0.604 µM
same,"cAMP activity, mGPR65",mGPR65; pH 7.2,at least 40%
same,logD,Lipophilicity (logD),> 4.23
same,activity for hGPR65,hGPR65,strong activity for hGPR65
same,activity for hGPR65 among prioritized molecules,"hGPR65; 1.56 μM, pH 7.2",highest activity
same,Emax,"hGPR65; 1st hGPR column pair, NA = no activity",81.1%
same,Emax,"hGPR65; 2nd hGPR column pair, NA = no activity",82.5%
same,EC50,"hGPR65; hGPR EC50 (uM), NA = no activity",0.428 µM
same,EC50,"hGPR65; hGPR EC50 (uM), pH 7.2, 30 min",0.348 µM
same,EC50,"hGPR65; hGPR EC50, NA = no activity",0.564 µM
same,EC50,"hGPR65; hGPR EC50, pH 7.2, 30 min",0.417 µM
same,"cAMP activity, hGPR65",hGPR65; pH 7.2,at least 40%
Cc1ccc(NC(=O)c2cnn3c(O)cc(-c4cccc(-c5ccccc5)c4)nc23)cc1 [BRD8101],Comments (solubility),[3],Poor solubility.
same,EC50,[2]; [6],3200 nM
same,GFP Max Activity,[2],2.825%
same,Emax,mGPR65; second pair,73.1%
same,EC50,"mGPR65; SAR cAMP assay, second EC50/Max pair of mGPR columns, read-out: mGPR EC50",0.566 µM
same,EC50,mGPR65; [7],0.0897 µM
same,mGPR Max Activity,mGPR65,82.45%
same,Emax,hGPR65; second pair,7.53%
same,EC50,hGPR65; [8],9.64 µM
same,EC50,hGPR65; [9],13.6 µM
same,hGPR Max Activity,hGPR65,28.01%
Cc1ccc(NC(=O)c2cnn3c(O)cc(-c4ccc(-c5ccncc5)cc4)nc23)cc1 [BRD0844],Comments (solubility),[3],Poor solubility.
same,Emax,hGPR65; first pair,30.3%
same,EC50,hGPR65; [10],7.97 µM
Cc1ccc(NC(=O)c2cnn3c(O)cc(-c4ccc(-c5cccc(C(C)C)c5)cc4)nc23)cc1 [BRD4922],Comments (solubility),[3],Poor solubility.
same,EC50,"[2]; SAR cAMP assay, second EC50/Max pair of GFP control columns",2440 nM
same,EC50,[2]; [6],6470 nM
same,Emax,[2]; second pair,0.205%
same,GFP Max Activity,[2],1.632%
same,EC50,mGPR65; [7],0.9 µM
same,mGPR Max Activity,mGPR65,35.02%
same,Emax,hGPR65; first pair,47.3%
same,Emax,hGPR65; second pair,51.9%
same,EC50,hGPR65; [10],3.82 µM
same,EC50,hGPR65; [8],1.42 µM
same,EC50,hGPR65; [9],0.688 µM
same,hGPR Max Activity,hGPR65,55.72%
